We go through 15 molecules from US12679836B2, “4H-pyrrolo[3,2-c]pyridin-4-one compounds” (Bayer Aktiengesellschaft, priority 2019, dated 2026).

Assay [1] concerns the target T1, EGFR with insertion of SVD between D770 and N771 (EGFR ins SVD) (Homo sapiens, UniProt P00533, DUP768-770).
T1 construct: made in house; host or cells: Sf9 insect cells (baculovirus)
Put plainly: Exon20-Mutant-EGFR(D770_N771insSVD) kinase assay (TR-FRET). It is filed as biochemical. The conditions noted are these: 2 mM ATP, several values per example where printed. For orientation: TR-FRET usually uses a lanthanide donor and a delayed reading to cut background.

A further assay has as its target T2, Bub1 (Homo sapiens, UniProt O43683).
T2 construct: catalytic domain of human Bub1 (amino acids 704-1085); His6 (N); made in house; host or cells: Hi5 insect cells
Kind of assay: Bub1 TR-FRET high ATP kinase assay. It is filed as biochemical. The conditions noted are these: 2 mM ATP. From the text:
Bub1 High ATP Kinase Assay
Bub1-inhibitory activity of compounds of the present invention at a high ATP concentration was quantified employing the Bub1 TR-FRET high ATP kinase assay as described in the following paragraphs.
N-terminally His6-tagged recombinant catalytic domain of human Bub1 (amino acids 704-1085), expressed in insect cells (Hi5) and purified by Ni-NTA affinity chromatography and subsequent size exclusion chromatography, was used as enzyme. As substrate for the kinase reaction the biotinylated peptide biotin-Ahx-[…]—SEQ ID 7 (C-terminus in amid form) was used which can be purchased e.g. form the company Biosyntan (Berlin, Germany).

Another assay concerns the target Ba/F3-EGFR-insSVD cells (Homo sapiens, UniProt P00533, DUP768-770, cells depend on it). Put plainly: Ba/F3 cell survival assay (Cell Titer-Glo), EGFR-insSVD. Conditions: without IL-3, with 10 ng/mL EGF, 48 h; read-out: BA/F3 (insSVD) IC50. The format is cell-based. The protocol:
(§1) 293T cells from ATCC were transfected with pBABEpuro expression constructs for WT EGFR or EGFR-insSVD and pCL-Eco packaging vector using Fugene-6 transfection reagent from Promega. Plates were incubated at 37° C. for 48 h. Retrovirus was harvested by filtering the media supernatant through a 0.45 μm filter.
(§2) Ba/F3 cells purchased from DSMZ were grown in RPMI+10% FBS+10 ng/mL IL-3 and infected with filtered retroviral supernatant at a 1:2 dilution. Polybrene was added to a concentration of 8 μg/mL, plates were spun for 90 min, and incubated overnight at 37° C. 2 μg/mL puromycin was added to the infected cells 24 h after infection and cells were continually grown in the presence of puromycin and 10 ng/mL IL-3. Following stably expressing Ba/F3 cell lines were generated: Ba/F3-EGFR-WT, Ba/F3-EGFR-insSVD, (Ba/F3-vector-control).
(§3) For cell survival assays, Ba/F3 cells were grown to a density of 1-2 million cells per mL, spun down and resuspended in media without IL-3, and replated at a concentration 200,000-500,000 cells per mL. The cells ectopically expressing WT EGFR or EGFR-insSVD were plated with 10 ng/mL Millipore Culture grade EGF. The cells ectopically expressing pBABEpuro empty vector were plated with 10 ng/mL IL-3. 2 days later, cells were plated in 50 μL in a 384 well plate at a concentration of 4000 cells per well for cells assayed in the absence of IL-3 and 2000 cells per well for cells assayed in the presence of IL-3. 100 nL of compound was added to each well using a 100 nL pin head, and plates were incubated at 37° C. for 48 h.
(§4) Cell viability was measured by adding 20 μL of Cell Titer-Glo Luminescent Cell Viability Reagent diluted 1:3 in PBS. Plates were sealed with Perkin Elmer Top-Seal, inverted several times to mix, and immediately centrifuged at 1000 rpm for 2 min. Plates were incubated in low light conditions for 8-10 min and luminescence was measured.
(In general: ATP-based viability assays read luminescence as a measure of living cells.)

A further assay addresses Ba/F3-EGFR-WT cells (Homo sapiens, UniProt P00533). Kind of assay: Ba/F3 cell survival assay (Cell Titer-Glo), WT EGFR. The format is cell-based. Conditions: without IL-3, with 10 ng/mL EGF, 48 h; read-out: BA/F3 (wild type) IC50. As for the experimental part:
as §1, §2, §3, §4

[2] abbreviates: Bub1 high ATP (2 mM) IC50 [mol/l].
The mark [3] stands for this setting: read-out: Bub1 high ATP (2 mM) IC50 [mol/l].

Read-outs that look alike come from different tables or passages of the source.

Sequence of Ba/F3-EGFR-insSVD cells (P00533 with tags, fused parts or gaps DUP768-770): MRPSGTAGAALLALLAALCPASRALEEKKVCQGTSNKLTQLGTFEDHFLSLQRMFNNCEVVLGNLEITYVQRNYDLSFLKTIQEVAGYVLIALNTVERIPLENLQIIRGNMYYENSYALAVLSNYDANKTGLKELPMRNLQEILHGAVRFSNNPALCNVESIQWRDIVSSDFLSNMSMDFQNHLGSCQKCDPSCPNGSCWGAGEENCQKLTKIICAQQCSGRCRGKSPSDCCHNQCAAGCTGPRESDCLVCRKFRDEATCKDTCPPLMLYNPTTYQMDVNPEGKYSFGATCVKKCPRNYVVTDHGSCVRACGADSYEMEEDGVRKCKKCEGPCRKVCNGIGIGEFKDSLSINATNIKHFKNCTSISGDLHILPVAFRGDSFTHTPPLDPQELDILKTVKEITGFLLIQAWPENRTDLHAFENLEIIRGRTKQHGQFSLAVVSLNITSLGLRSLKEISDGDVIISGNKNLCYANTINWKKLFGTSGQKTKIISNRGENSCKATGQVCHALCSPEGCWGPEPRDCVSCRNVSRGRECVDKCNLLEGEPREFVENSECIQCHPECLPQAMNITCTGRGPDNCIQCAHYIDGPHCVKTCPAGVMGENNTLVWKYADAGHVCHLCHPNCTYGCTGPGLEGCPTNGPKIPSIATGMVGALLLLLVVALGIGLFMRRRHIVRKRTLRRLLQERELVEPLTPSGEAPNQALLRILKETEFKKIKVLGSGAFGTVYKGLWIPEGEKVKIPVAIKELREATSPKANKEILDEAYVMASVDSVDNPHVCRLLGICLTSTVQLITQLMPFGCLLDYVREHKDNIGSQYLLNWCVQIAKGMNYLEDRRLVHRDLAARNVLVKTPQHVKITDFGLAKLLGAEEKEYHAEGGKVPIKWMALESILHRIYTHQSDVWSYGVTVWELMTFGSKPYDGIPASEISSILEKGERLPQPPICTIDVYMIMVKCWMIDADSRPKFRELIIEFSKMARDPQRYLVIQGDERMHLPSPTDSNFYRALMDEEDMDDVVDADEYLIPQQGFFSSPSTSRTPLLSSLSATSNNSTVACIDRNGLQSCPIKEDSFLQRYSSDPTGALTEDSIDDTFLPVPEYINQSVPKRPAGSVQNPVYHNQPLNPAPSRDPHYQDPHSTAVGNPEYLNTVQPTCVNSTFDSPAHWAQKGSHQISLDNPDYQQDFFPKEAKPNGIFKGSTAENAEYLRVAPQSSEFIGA
Sequence of Ba/F3-EGFR-WT cells (P00533 whole entry, change not shown): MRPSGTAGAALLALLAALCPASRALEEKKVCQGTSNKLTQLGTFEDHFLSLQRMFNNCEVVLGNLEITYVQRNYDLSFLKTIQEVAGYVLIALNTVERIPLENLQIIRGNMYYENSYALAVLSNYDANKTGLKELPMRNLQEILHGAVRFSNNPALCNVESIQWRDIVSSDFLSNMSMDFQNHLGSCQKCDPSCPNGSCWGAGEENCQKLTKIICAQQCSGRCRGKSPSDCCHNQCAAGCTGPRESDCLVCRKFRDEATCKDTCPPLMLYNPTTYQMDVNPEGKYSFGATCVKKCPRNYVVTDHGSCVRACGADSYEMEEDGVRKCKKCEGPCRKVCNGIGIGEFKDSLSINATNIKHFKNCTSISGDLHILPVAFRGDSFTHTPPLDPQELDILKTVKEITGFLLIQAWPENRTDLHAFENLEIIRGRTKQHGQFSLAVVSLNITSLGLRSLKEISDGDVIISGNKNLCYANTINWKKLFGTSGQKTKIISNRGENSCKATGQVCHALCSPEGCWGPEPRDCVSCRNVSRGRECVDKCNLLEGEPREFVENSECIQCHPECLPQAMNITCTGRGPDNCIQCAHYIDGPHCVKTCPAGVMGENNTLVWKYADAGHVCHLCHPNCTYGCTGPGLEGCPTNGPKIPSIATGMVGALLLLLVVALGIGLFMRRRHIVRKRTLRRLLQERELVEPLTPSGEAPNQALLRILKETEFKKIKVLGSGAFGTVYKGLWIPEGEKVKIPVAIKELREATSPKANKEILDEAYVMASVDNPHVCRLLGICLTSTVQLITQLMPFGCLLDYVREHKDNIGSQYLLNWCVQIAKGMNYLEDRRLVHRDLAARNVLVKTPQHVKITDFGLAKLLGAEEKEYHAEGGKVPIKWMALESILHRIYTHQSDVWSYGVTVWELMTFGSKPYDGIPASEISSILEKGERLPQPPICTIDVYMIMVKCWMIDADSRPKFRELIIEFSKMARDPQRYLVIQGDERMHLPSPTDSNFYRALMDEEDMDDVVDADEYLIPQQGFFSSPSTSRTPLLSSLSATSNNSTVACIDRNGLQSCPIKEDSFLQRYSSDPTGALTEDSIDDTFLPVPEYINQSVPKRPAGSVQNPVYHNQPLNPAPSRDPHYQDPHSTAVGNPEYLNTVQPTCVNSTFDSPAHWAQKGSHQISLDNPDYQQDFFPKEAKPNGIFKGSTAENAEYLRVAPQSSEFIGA
T2 sequence (O43683 704-1085): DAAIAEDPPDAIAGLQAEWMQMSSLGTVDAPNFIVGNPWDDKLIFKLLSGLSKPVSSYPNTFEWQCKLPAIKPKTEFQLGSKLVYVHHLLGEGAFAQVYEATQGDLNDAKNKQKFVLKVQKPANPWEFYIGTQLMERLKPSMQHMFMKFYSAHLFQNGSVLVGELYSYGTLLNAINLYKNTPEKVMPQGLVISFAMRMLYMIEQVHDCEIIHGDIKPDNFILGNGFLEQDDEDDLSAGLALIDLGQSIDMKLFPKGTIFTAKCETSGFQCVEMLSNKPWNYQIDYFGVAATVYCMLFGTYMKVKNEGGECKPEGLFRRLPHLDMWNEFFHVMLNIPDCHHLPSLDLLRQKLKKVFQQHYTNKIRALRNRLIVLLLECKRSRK
T1 sequence (P00533 with tags, fused parts or gaps DUP768-770): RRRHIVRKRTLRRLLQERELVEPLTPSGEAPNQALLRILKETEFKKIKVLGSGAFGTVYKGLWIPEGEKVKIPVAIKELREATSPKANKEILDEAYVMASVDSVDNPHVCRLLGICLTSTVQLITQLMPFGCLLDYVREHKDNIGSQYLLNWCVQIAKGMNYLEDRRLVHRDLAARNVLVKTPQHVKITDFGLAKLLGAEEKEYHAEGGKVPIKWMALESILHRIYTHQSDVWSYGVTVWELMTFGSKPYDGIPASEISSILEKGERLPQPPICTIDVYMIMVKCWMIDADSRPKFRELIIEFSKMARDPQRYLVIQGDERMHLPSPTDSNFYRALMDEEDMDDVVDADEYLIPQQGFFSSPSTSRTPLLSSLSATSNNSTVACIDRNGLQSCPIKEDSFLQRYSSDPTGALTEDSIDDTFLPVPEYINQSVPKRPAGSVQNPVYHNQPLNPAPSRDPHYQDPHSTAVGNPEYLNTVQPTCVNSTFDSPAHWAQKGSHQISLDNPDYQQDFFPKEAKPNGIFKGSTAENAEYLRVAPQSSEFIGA

Consider `COc1c(Cl)cccc1Nc1c(-c2ccncc2OCCC2COCCO2)[nH]c2c1C(=O)NCC2` (single isomer, unassigned) [Example 26, 3-(3-chloro-2-methoxyanilino)-2-{3-[2-(4-dioxan-2-yl)ethoxy]pyridin-4-yl}-1,5,6,7-tetrahydro-4H-pyrrolo[3,2-c]pyridin-4-one], for which the “mutEGFR (D770_N771insSVD) kinase assay IC50” value (from here on “mutEGFR”) in assay [1] is 0.213 nM. This molecule also yielded an IC50 at Bub1 (setting [2]) of 1080 nM. Moreover, the GI50 at Ba/F3-EGFR-insSVD cells came out at 89.9 nM; at Ba/F3-EGFR-WT cells, 839 nM.

For `CCc1c(F)cccc1Nc1c(-c2ccncc2OCC2COC(C)(C)CO2)[nH]c2c1C(=O)NCC2` (stereo not drawn) [Example 68, 2-(3-{[5,5-dimethyl-1,4-dioxan-2-yl]methoxy}pyridin-4-yl)-3-(2-ethyl-3-fluoroanilino)-1,5,6,7-tetrahydro-4H-pyrrolo[3,2-c]pyridin-4-one], the “mutEGFR” value in assay [1] came out at 0.267 nM. The same molecule gave an IC50 on Bub1 (setting [2]) above 20000 nM. The GI50 on Ba/F3-EGFR-insSVD cells amounted to 37.3 nM; on Ba/F3-EGFR-WT cells it was 644 nM.

Take `COc1c(F)cccc1Nc1c(-c2ccncc2OC[C@H]2COCCN2C)[nH]c2c1C(=O)NCC2` [Example 37, 3-(3-fluoro-2-methoxyanilino)-2-(3-{[(3R)-4-methylmorpholin-3-yl]methoxy}pyridin-4-yl)-1,5,6,7-tetrahydro-4H-pyrrolo[3,2-c]pyridin-4-one]: in assay [1], the “mutEGFR” value turned out to be 0.4 nM. The molecule also returned an IC50 on Bub1 (setting [2]) of 19000 nM. Also, the GI50 on Ba/F3-EGFR-insSVD cells amounted to 35.7 nM; at Ba/F3-EGFR-WT cells, 348 nM.

With `COc1c(Cl)cccc1Nc1c(-c2ccncc2OCC2CN(C)CCO2)[nH]c2c1C(=O)NCC2` (single isomer, unassigned) [Example 17, 3-(3-chloro-2-methoxyanilino)-2-(3-{[4-methylmorpholin-2-yl]methoxy}pyridin-4-yl)-1,5,6,7-tetrahydro-4H-pyrrolo[3,2-c]pyridin-4-one], the “mutEGFR” value in assay [1] came out at 0.156 nM. Also, on Bub1 (setting [3]), the IC50 was above 20000 nM. The GI50 at Ba/F3-EGFR-insSVD cells was 9.53 nM; at Ba/F3-EGFR-WT cells it was 231 nM.

For the molecule `Cc1c(Cl)cccc1Nc1c(-c2ccncc2OCC2COCCO2)[nH]c2c1C(=O)NCC2` (stereo not drawn) [Example 10, 3-(3-chloro-2-methylanilino)-2-{3-[(1,4-dioxan-2-yl)methoxy]pyridin-4-yl}-1,5,6,7-tetrahydro-4H-pyrrolo[3,2-c]pyridin-4-one], in assay [1], the “mutEGFR” value amounted to 0.669 nM. The same molecule showed an IC50 against Bub1 (setting [2]) of 1780 nM. In addition, the GI50 at Ba/F3-EGFR-insSVD cells was 11.1 nM; on Ba/F3-EGFR-WT cells, 496 nM.

On to `COc1c(F)cccc1Nc1c(-c2ccncc2OCC2COCCO2)[nH]c2c1C(=O)NCC2` (stereo not drawn) [Example 4, 2-{3-[(1,4-dioxan-2-yl)methoxy]pyridin-4-yl}-3-(3-fluoro-2-methoxyanilino)-1,5,6,7-tetrahydro-4H-pyrrolo[3,2-c]pyridin-4-one], for which, in assay [1], the “mutEGFR” value worked out at 0.256 nM. Besides, the IC50 at Bub1 (setting [2]) worked out at 11300 nM. In addition, the GI50 on Ba/F3-EGFR-insSVD cells came out at 19.5 nM; on Ba/F3-EGFR-WT cells, 452 nM.

`COc1c(F)cccc1Nc1c(-c2ccncc2OCC2COC(C)(C)CO2)[nH]c2c1C(=O)NCC2` (single isomer, unassigned) [Example 34, 2-(3-{[5,5-dimethyl-1,4-dioxan-2-yl]methoxy}pyridin-4-yl)-3-(3-fluoro-2-methoxyanilino)-1,5,6,7-tetrahydro-4H-pyrrolo[3,2-c]pyridin-4-one]: the “mutEGFR” value in assay [1] came out at 0.193 nM. At Bub1 (setting [3]), the IC50 was above 20000 nM. Also, the figures for the GI50 at Ba/F3-EGFR-insSVD cells and on Ba/F3-EGFR-WT cells were 12 nM and 204 nM, respectively.

Regarding `COc1c(Cl)cc(F)cc1Nc1c(-c2ccncc2OC[C@@H]2CN(CC(F)(F)F)CCO2)[nH]c2c1C(=O)NCC2` [Example 28, 3-(3-chloro-5-fluoro-2-methoxyanilino)-2-(3-{[(2S)-4-(2,2,2-trifluoroethyl)morpholin-2-yl]methoxy}pyridin-4-yl)-1,5,6,7-tetrahydro-4H-pyrrolo[3,2-c]pyridin-4-one], in assay [1], the “mutEGFR” value is 0.249 nM. Also, on Bub1 (setting [2]), the IC50 is above 20000 nM. The GI50 came to 126 nM on Ba/F3-EGFR-insSVD cells and 1240 nM at Ba/F3-EGFR-WT cells.

With `COc1c(Cl)cccc1Nc1c(-c2ccncc2OC(C)C2CN(C)CCO2)[nH]c2c1C(=O)NCC2` (single isomer, unassigned) [Example 75, 3-(3-chloro-2-methoxyanilino)-2-[3-({1-[-4-methylmorpholin-2-yl]ethyl}oxy)pyridin-4-yl]-1,5,6,7-tetrahydro-4H-pyrrolo[3,2-c]pyridin-4-one], the “mutEGFR” value in assay [1] stood at 4.99 nM. The IC50 at Bub1 (setting [3]) was above 20000 nM. Besides, the GI50 on Ba/F3-EGFR-insSVD cells was found to be 571 nM; at Ba/F3-EGFR-WT cells it was 3900 nM.

On to `COc1c(Cl)cccc1Nc1c(-c2ccncc2OCC2COCCO2)[nH]c2c1C(=O)NCC2` (stereo not drawn) [Example 1, 3-(3-chloro-2-methoxyanilino)-2-{3-[(1,4-dioxan-2-yl)methoxy]pyridin-4-yl}-1,5,6,7-tetrahydro-4H-pyrrolo[3,2-c]pyridin-4-one], for which the “mutEGFR” value in assay [1] stood at 0.159 nM. The IC50 at Bub1 (setting [2]) stood at 3360 nM. The results for the GI50 at Ba/F3-EGFR-insSVD cells and at Ba/F3-EGFR-WT cells were 9.8 nM and 366 nM, respectively.

As for `Cc1c(F)cccc1Nc1c(-c2ccncc2OCC2CN(C)CCO2)[nH]c2c1C(=O)NCC2` (single isomer, unassigned) [Example 64, 3-(3-fluoro-2-methylanilino)-2-(3-{[4-methylmorpholin-2-yl]methoxy}pyridin-4-yl)-1,5,6,7-tetrahydro-4H-pyrrolo[3,2-c]pyridin-4-one], the “mutEGFR” value in assay [1] is 0.187 nM. In addition, at Bub1 (setting [3]), the IC50 is above 20000 nM. Also, the GI50 on Ba/F3-EGFR-insSVD cells was determined as 7.58 nM; at Ba/F3-EGFR-WT cells, 271 nM.

As to `Cc1c(Cl)cccc1Nc1c(-c2ccncc2OC[C@H]2COCCO2)[nH]c2c1C(=O)NCC2` (single isomer, unassigned) [Example 51], in assay [1], the “mutEGFR” value turned out to be 0.136 nM. The IC50 against Bub1 (setting [2]) turned out to be 1520 nM. Besides, the figures for the GI50 at Ba/F3-EGFR-insSVD cells and at Ba/F3-EGFR-WT cells were 46.7 nM and 742 nM, respectively.

On to `COc1c(F)cccc1Nc1c(-c2ccncc2OCC2COC(C)(C)CO2)[nH]c2c1C(=O)NCC2` (single isomer, unassigned) [Example 33, 2-(3-{[5,5-dimethyl-1,4-dioxan-2-yl]methoxy}pyridin-4-yl)-3-(3-fluoro-2-methoxyanilino)-1,5,6,7-tetrahydro-4H-pyrrolo[3,2-c]pyridin-4-one], for which the “mutEGFR” value in assay [1] was 0.213 nM. Moreover, the IC50 on Bub1 (setting [2]) was above 20000 nM. The GI50 at Ba/F3-EGFR-insSVD cells came out at 102 nM; at Ba/F3-EGFR-WT cells, 557 nM.

For the molecule `O=C1NCCc2[nH]c(-c3ccncc3OCC3COCCO3)c(Nc3cccc(Cl)c3Cl)c21` (stereo not drawn) [Example 7, 3-(2,3-dichloroanilino)-2-{3-[(1,4-dioxan-2-yl)methoxy]pyridin-4-yl}-1,5,6,7-tetrahydro-4H-pyrrolo[3,2-c]pyridin-4-one], the “mutEGFR” value in assay [1] is 0.137 nM. Moreover, the IC50 at Bub1 (setting [2]) turned out to be 10600 nM. In addition, the GI50 on Ba/F3-EGFR-insSVD cells was determined as 18 nM; on Ba/F3-EGFR-WT cells, 292 nM.

Regarding `CN1CCO[C@H](COc2cnccc2-c2[nH]c3c(c2Nc2cccc(F)c2CC(F)F)C(=O)NCC3)C1` [Example 41, 3-[2-(2,2-difluoroethyl)-3-fluoroanilino]-2-(3-{[(2S)-4-methylmorpholin-2-yl]methoxy}pyridin-4-yl)-1,5,6,7-tetrahydro-4H-pyrrolo[3,2-c]pyridin-4-one], the “mutEGFR” value in assay [1] was determined as 0.291 nM. Further, on Bub1 (setting [2]), the IC50 was above 20000 nM. Moreover, the GI50 on Ba/F3-EGFR-insSVD cells was 77.5 nM; on Ba/F3-EGFR-WT cells, 695 nM.
